Columns and labels:
[1] = biological target: Multidrug resistance protein 1a (Rattus norvegicus) (UniProt Q6PSM0); assay: TP_TRANSPORTER: Northern blot in vitro, nonparenchymal ral liver epithelial cells; assay type: functional; conditions: Epithelial cell
[2] = biological target: Multidrug resistance protein 1a (Rattus norvegicus) (UniProt Q6PSM0); assay: TP_TRANSPORTER: Western in vitro, nonparenchymal rat liver epithelial cells; assay type: functional, tissue-based; conditions: Epithelial cell
[3] = biological target: ATP-dependent translocase ABCB1 (Rattus norvegicus, UniProt P43245); assay: TP_TRANSPORTER: RT-PCR in vitro, nonparenchymal rat liver epithelial cells; assay type: functional, tissue-based; conditions: epithelial cell
Sequence of ATP-dependent translocase ABCB1 (P43245 whole entry): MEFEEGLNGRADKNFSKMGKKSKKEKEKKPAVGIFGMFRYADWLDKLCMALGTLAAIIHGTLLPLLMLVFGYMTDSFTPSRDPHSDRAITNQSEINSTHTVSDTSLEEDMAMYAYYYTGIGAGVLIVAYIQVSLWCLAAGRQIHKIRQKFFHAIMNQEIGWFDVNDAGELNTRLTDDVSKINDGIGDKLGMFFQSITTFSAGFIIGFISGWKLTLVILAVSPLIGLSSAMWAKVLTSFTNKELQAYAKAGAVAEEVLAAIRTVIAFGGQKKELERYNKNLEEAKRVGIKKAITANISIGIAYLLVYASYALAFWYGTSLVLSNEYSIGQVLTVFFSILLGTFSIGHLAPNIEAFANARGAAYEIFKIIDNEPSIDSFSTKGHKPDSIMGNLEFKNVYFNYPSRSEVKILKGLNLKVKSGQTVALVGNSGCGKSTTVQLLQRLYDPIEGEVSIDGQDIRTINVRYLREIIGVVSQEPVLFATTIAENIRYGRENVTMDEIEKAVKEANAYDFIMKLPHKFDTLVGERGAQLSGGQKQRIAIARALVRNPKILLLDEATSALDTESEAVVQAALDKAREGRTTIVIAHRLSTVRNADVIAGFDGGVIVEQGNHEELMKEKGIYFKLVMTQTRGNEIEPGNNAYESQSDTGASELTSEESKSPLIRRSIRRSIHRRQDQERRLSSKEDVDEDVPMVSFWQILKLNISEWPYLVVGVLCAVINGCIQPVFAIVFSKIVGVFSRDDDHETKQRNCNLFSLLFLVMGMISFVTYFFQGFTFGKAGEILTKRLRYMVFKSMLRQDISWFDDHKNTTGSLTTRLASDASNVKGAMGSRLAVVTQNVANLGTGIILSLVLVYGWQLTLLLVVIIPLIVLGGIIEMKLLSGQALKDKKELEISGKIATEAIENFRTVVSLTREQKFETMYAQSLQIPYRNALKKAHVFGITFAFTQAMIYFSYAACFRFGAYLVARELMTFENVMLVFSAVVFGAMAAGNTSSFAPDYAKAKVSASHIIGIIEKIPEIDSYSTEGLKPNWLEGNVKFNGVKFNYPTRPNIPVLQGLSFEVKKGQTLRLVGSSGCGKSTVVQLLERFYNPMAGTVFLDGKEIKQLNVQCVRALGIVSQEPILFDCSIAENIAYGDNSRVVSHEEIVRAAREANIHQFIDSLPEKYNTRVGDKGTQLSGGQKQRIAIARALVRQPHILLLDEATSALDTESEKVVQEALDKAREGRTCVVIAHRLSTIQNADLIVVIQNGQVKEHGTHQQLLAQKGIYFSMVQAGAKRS

Sequence of Multidrug resistance protein 1a (Rattus norvegicus) (Q6PSM0 as listed by the source): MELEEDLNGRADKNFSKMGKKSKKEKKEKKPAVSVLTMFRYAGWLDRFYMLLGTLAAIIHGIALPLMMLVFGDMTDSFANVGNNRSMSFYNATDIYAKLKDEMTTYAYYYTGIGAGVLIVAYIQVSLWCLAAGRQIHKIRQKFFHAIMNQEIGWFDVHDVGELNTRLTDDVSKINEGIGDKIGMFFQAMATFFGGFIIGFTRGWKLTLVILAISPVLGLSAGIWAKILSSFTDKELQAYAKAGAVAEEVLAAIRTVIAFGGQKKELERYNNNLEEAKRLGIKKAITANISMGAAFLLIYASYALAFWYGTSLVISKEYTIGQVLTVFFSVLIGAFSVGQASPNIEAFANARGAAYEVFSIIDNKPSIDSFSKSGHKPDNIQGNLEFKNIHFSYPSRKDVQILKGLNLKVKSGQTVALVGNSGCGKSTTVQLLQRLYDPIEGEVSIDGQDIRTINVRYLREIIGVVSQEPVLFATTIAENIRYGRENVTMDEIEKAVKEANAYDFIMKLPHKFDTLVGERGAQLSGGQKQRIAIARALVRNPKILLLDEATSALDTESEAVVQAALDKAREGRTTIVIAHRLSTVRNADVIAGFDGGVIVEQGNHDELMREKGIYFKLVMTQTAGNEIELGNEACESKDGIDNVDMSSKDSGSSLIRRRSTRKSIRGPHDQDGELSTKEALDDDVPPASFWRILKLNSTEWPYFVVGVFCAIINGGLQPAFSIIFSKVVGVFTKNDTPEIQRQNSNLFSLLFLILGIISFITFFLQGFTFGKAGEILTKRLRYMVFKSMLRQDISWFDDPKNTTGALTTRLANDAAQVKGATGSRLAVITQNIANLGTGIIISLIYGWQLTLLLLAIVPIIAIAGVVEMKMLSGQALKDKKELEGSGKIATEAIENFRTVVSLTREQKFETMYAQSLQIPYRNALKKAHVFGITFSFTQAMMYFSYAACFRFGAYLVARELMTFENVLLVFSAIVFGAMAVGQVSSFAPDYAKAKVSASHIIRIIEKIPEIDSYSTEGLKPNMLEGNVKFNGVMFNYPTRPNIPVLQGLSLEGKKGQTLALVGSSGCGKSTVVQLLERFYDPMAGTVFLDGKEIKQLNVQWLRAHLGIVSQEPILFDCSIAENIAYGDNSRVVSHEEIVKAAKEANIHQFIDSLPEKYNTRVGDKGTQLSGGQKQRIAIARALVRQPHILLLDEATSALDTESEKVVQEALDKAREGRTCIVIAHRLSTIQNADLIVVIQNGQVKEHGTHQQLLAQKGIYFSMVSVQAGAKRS

Structure (SMILES)	Activity [1]	Activity [2]	Activity [3]
C[C@@H]1C[C@@H]([C@H](O)CC2CC(=O)NC(=O)C2)C(=O)[C@@H](C)C1	inducer [+]		
c1ccc2c(c1)cc1ccc3cccc4ccc2c1c34	inducer [+]		
Cc1ccc2cc3c(ccc4ccccc43)c3c2c1CC3 [3-METHYLCHOLANTHRENE]		inducer [+]	inducer [+]
